Data on 16 compounds can be found in patent publication US20230072683A1, “PYRIDO-PYRIMIDIN DERIVATIVES AND PHARMACEUTICAL COMPOSITION, FOR USE IN PREVENTING OR TREATING PI3 KINASE RELATED DISEASES, COMPRISING SAME AS ACTIVE INGREDIENT” (BORYUNG PHARMACEUTICAL CO., LTD, priority 2019, published 2023).

Assay [1] deals with PI3K-δ (PI3K(p1108/p857) (h)) (Homo sapiens, UniProt O00329). Kind of assay: Evaluation of inhibitory activity against PI3K-δ (HTRF kinase assay). Type of assay: biochemical. Particulars: compound concentration 0.01 μM; read-out: EXP_VALUE(% Inhibition) PI3K-δ 0.01 μM. In short, it runs like this:
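HTRF read-out (665/620 nm ratio ×10000) used Eu-labelled anti-GST, GST-tagged GRP1 PH domain and streptavidin-allophycocyanin after EDTA/PIP3 stop.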
(In general: Time-resolved FRET reads energy transfer from a long-lived donor to a nearby acceptor.)

The next assay deals with DNA-PK(h) (Homo sapiens, UniProt P78527). Kind of assay: Evaluation of inhibitory activity against DNA-PK (HTRF kinase assay, GST-cMyc-p53 substrate). Format: biochemical. Particulars: compound concentration 0.01 μM; read-out: EXP_VALUE(% Inhibition) DNA-PK(h) 0.01 μM. In outline:
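p53 Ser15 phosphorylation by human DNA-PK was measured by time-resolved FRET ratio (665/620 nm ×10000) using Eu-labelled anti-phospho-Ser15 and d2 anti-GST antibodies. Substrate GST-cMyc-p53 at 50 μM; Mg/ATP-initiated, 30 min at room temperature, EDTA stop.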

The inhibition is the change of the read-out against control, counted positive when it falls.

PI3K-δ (PI3K(p1108/p857) (h)), sequence (O00329 whole entry, the tested form may be a part): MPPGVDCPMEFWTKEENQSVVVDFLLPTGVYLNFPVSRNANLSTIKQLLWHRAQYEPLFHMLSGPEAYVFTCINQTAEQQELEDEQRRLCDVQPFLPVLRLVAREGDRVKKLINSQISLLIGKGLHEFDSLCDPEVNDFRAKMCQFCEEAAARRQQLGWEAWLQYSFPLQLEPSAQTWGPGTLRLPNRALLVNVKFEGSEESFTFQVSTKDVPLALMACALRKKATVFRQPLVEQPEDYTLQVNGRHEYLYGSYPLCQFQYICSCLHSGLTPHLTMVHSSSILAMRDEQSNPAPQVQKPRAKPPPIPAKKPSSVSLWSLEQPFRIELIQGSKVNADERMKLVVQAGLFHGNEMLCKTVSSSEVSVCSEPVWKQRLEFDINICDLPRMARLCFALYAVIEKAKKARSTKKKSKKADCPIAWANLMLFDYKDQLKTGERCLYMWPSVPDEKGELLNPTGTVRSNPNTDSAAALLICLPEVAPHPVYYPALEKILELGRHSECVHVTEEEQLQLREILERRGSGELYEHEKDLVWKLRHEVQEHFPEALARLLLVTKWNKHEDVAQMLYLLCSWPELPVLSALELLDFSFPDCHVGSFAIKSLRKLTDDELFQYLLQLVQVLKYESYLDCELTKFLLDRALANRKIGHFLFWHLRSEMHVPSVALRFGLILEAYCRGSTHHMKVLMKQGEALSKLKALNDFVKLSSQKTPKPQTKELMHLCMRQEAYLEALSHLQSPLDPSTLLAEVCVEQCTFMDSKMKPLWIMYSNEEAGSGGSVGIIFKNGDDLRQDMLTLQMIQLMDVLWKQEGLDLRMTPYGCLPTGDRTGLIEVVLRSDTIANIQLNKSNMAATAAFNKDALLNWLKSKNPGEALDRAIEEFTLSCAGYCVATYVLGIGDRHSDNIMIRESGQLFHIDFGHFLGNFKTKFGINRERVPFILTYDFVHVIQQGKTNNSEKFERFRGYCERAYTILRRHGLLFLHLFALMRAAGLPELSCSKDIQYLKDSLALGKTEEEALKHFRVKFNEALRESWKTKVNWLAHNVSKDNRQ
PI3K-δ (PI3K(p1108/p857) (h)), sequence (P27986 whole entry partner, the tested form may be a part): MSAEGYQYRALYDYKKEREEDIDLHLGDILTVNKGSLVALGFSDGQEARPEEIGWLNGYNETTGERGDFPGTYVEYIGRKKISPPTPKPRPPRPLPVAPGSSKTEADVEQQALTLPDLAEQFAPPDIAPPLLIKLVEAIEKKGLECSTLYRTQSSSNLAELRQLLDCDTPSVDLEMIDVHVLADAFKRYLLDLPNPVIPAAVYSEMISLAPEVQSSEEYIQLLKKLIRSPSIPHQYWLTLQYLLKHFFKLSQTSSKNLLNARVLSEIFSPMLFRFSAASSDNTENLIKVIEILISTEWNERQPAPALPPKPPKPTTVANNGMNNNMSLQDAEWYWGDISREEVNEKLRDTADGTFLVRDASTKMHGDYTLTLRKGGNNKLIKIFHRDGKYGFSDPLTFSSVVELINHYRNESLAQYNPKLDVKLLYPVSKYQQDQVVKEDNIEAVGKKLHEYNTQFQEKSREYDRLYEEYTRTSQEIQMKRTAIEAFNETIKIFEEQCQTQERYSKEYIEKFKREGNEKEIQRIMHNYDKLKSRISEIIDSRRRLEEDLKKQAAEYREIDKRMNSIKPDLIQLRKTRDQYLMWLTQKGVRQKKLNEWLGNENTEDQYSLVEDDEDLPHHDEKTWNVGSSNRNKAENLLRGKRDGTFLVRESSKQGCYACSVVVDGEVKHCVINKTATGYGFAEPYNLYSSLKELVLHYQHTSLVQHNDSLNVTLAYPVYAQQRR

Take `C[C@H](Nc1ncnc2[nH]ccc(=O)c12)c1c(Cl)c2cccc(-c3cnc(N4CCC4)nc3)c2c(=O)n1-c1ccccc1` [Example 200, (S)-4-((1-(8-(2-(azetidin-1-yl)pyrimidin-5-yl)-4-chloro-1-oxo-2-phenyl-1,2-dihydroisoquinolin-3-yl)ethyl)amino)pyrido[2,3-d]pyrimidin-5(8H)-one]: the results for the inhibition at 0.01 µM (in assay [1]; on DNA-PK(h)) were 77% and 72%, respectively.
The like results for `C[C@H](Nc1ncnc2[nH]ccc(=O)c12)c1c(Cl)c2cccc(-c3ccc(C(N)=O)nc3)c2c(=O)n1-c1ccccc1` [Example 201, (S)-5-(4-chloro-1-oxo-3-(1-((5-oxo-5,8-dihydropyrido[2,3-d]pyrimidin-4-yl)amino)ethyl)-2-phenyl-1,2-dihydroisoquinolin-8-yl) picolinamide] were, in that order, 80% and 73%.
The corresponding values for `CC(=O)Nc1ccc(-c2cccc3c(Cl)c([C@H](C)Nc4ncnc5[nH]ccc(=O)c45)n(-c4ccccc4)c(=O)c23)cn1` [Example 202, (S)—N-(5-(4-chloro-1-oxo-3-(1-((5-oxo-5,8-dihydropyrido[2,3-d]pyrimidin-4-yl)amino)ethyl)-2-phenyl-1,2-dihydroisoquinolin-8-yl)pyridin-2-yl) acetamide] are 78% and 70%.
The corresponding values for `C[C@H](Nc1ncnc2[nH]ccc(=O)c12)c1c(Cl)c2cccc(-c3cnc(NC4CC4)nc3)c2c(=O)n1-c1ccccc1` [Example 203, (S)-4-((1-(4-chloro-8-(2-(cyclopropylamino)pyrimidin-5-yl)-1-oxo-2-phenyl-1,2-dihydroisoquinolin-3-yl)ethyl)amino)pyrido[2,3-d]pyrimidin-5(8H)-one] are 106% and 79%.
With `COc1cncc(-c2cccc3c(Cl)c([C@H](C)Nc4ncnc5[nH]ccc(=O)c45)n(-c4ccccc4)c(=O)c23)n1` [Example 204, (S)-4-((1-(4-chloro-8-(6-methoxypyrazin-2-yl)-1-oxo-2-phenyl-1,2-dihydroisoquinolin-3-yl)ethyl)amino)pyrido[2,3-d]pyrimidin-5(8H)-one], the inhibition at 0.01 µM in assay [1] is 73%; at DNA-PK(h) it was 66%.
Take `C[C@H](Nc1ncnc2[nH]ccc(=O)c12)c1c(Cl)c2cccc(-c3cnc(N(C)C)cn3)c2c(=O)n1-c1ccccc1` [Example 205, (S)-4-((1-(4-chloro-8-(5-(dimethylamino)pyrazin-2-yl)-1-oxo-2-phenyl-1,2-dihydroisoquinolin-3-yl)ethyl)amino)pyrido[2,3-d]pyrimidin-5(8H)-one]: the inhibition at 0.01 µM in assay [1] was determined as 49%; at DNA-PK(h), 47%.
The corresponding values for `C[C@H](Nc1ncnc2[nH]ccc(=O)c12)c1c(Cl)c2cccc(-c3cnc(OC(C)(C)C)cn3)c2c(=O)n1-c1ccccc1` [Example 206, (S)-4-((1-(8-(5-(tert-butoxy)pyrazin-2-yl)-4-chloro-1-oxo-2-phenyl-1,2-dihydroisoquinolin-3-yl)ethyl)amino)pyrido[2,3-d]pyrimidin-5(8H)-one] are 45% and 29%.
The like results for `C[C@H](Nc1ncnc2[nH]ccc(=O)c12)c1c(Cl)c2cccc(-c3cnc(N4CCOCC4)cn3)c2c(=O)n1-c1ccccc1` [Example 207, (S)-4-((1-(4-chloro-8-(5-morpholinopyrazin-2-yl)-1-oxo-2-phenyl-1,2-dihydroisoquinolin-3-yl)ethyl)amino)pyrido[2,3-d]pyrimidin-5(8H)-one] were, in that order, 57% and 52%.
The like results for `C[C@H](Nc1ncnc2[nH]ccc(=O)c12)c1c(Cl)c2cccc(-c3cnc(C(C)(C)C)nc3)c2c(=O)n1-c1ccccc1` [Example 208, (S)-4-((1-(8-(2-(tert-butyl)pyrimidin-5-yl)-4-chloro-1-oxo-2-phenyl-1,2-dihydroisoquinolin-3-yl)ethyl)amino)pyrido[2,3-d]pyrimidin-5(8H)-one] were, in that order, 68% and 58%.
With `CC(C)S(=O)(=O)c1ccc(-c2cccc3c(Cl)c([C@H](C)Nc4ncnc5[nH]ccc(=O)c45)n(-c4ccccc4)c(=O)c23)cc1` [Example 209, (S)-4-((1-(4-chloro-8-(4-(isopropylsulfonyl)phenyl)-1-oxo-2-phenyl-1,2-dihydroisoquinolin-3-yl)ethyl)amino)pyrido[2,3-d]pyrimidin-5(8H)-one], the inhibition at 0.01 µM in assay [1] was found to be 67%; at DNA-PK(h), 77%.
The corresponding values for `C[C@H](Nc1ncnc2[nH]ccc(=O)c12)c1c(Cl)c2cccc(-c3cncc(N4CCOCC4)n3)c2c(=O)n1-c1ccccc1` [Example 210, (S)-4-((1-(4-chloro-8-(6-morpholinopyrazin-2-yl)-1-oxo-2-phenyl-1,2-dihydroisoquinolin-3-yl)ethyl)amino)pyrido[2,3-d]pyrimidin-5(8H)-one] are 73% and 56%.
The like results for `C[C@H](Nc1ncnc2[nH]ccc(=O)c12)c1c(Cl)c2cccc(-c3cnc(N4CCN(C)CC4)cn3)c2c(=O)n1-c1ccccc1` [Example 211, (S)-4-((1-(4-chloro-8-(5-(4-methylpiperazin-1-yl)pyrazin-2-yl)-1-oxo-2-phenyl-1,2-dihydroisoquinolin-3-yl)ethyl)amino)pyrido[2,3-d]pyrimidin-5(8H)-one] were, in that order, 80% and 55%.
In the case of `Cc1nc(N)ncc1-c1cccc2c(Cl)c([C@H](C)Nc3ncnc4[nH]ccc(=O)c34)n(-c3ccccc3)c(=O)c12` [Example 212, (S)-4-((1-(8-(2-amino-4-methylpyrimidin-5-yl)-4-chloro-1-oxo-2-phenyl-1,2-dihydroisoquinolin-3-yl)ethyl)amino)pyrido[2,3-d]pyrimidin-5(8H)-one], the inhibition at 0.01 µM amounted to 94% in assay [1] and 57% at DNA-PK(h).
On to `C[C@H](Nc1ncnc2[nH]ccc(=O)c12)c1c(Cl)c2cccc(-c3cnc4ccccc4c3)c2c(=O)n1-c1ccccc1` [Example 213, (S)-4-((1-(4-chloro-1-oxo-2-phenyl-8-(quinolin-3-yl)-1,2-dihydroisoquinolin-3-yl)ethyl)amino)pyrido[2,3-d]pyrimidin-5(8H)-one], for which the inhibition at 0.01 µM in assay [1] worked out at 98%; at DNA-PK(h), 69%.
The like results for `CSc1ncc(-c2cccc3c(Cl)c([C@H](C)Nc4ncnc5[nH]ccc(=O)c45)n(-c4ccccc4)c(=O)c23)cn1` [Example 214, (S)-4-((1-(4-chloro-8-(2-(methylthio)pyrimidin-5-yl)-1-oxo-2-phenyl-1,2-dihydroisoquinolin-3-yl)ethyl)amino)pyrido[2,3-d]pyrimidin-5(8H)-one] were, in that order, 99% and 70%.
In the case of `CC(C)c1ncncc1-c1cccc2c(Cl)c([C@H](C)Nc3ncnc4[nH]ccc(=O)c34)n(-c3ccccc3)c(=O)c12` [Example 215, (S)-4-((1-(4-chloro-8-(4-isopropylpyrimidin-5-yl)-1-oxo-2-phenyl-1,2-dihydroisoquinolin-3-yl)ethyl)amino)pyrido[2,3-d]pyrimidin-5(8H)-one], the inhibition at 0.01 µM came out at 73% in assay [1] and 44% on DNA-PK(h).
